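A five-concentration, 48-hour dose response in 96-well plates underlies each endpoint, interpolated linearly between surrounding concentrations. GI50 = concentration required for 50% inhibition of growth.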 Calls of active or inactive are those of the source. Rule as the data show it: active = GI50 up to about 1.1 µM and inactive = higher. Non-standard residues stand in square brackets, D forms with d. Residues, ends and D or L forms follow the SMILES beside them. ξ: configuration not given here. *: point of attachment. NMeF = CN[C@@H](Cc1ccccc1)C(=O)O; NMeN = CN[C@@H](CC(N)=O)C(=O)O; NMeV = CN[C@H](C(=O)O)C(C)C; ξNMeV = CNC(C(=O)O)C(C)C; Boc = CC(C)(C)OC(=O)*; ξNMeA = CNC(C)C(=O)O; ξV = CC(C)C(N)C(=O)O

Holding throughout (experiment): NCI-60 cell line screen, 48 h
Test [1] deals with IGROV-1.
In test [2] the test system is MDA-MB-435.
Test [3] relates to OVCAR-8.
The test system of test [4] is T47D.
For test [5], the system named is LOX IMVI.
Test [6] has as its system NCI-H460.
Test [7] has as its system SF-295.
Test [8] has as its system SN12C.
Test [9] deals with UACC-257.
The subject of test [10] is HT-29.
The subject of test [11] is K562.
In test [12] the test system is HOP-92.
Test [13] concerns A498.
Test [14] relates to SNB-78.
The subject of test [15] is DMS-273.
For test [16], the system named is MCF7.
The test system of test [17] is A549.
Test [18] relates to HCT-15.
In test [19] the test system is SK-OV-3.
Test [20] deals with 786-0.

Turning to `COC(=O)C(C)N(C)C(=O)[C@H](CC(N)=O)N(C)C(=O)[C@@H]1CCCN1C(=O)[C@H](C(C)C)N(C)C(=O)C(C(C)C)N(C)C(=O)[C@H](Cc1ccccc1)N(C)C(=O)C(NC(=O)OC(C)(C)C)C(C)C` (stereo not given in full) (Boc-[ξV][NMeF][ξNMeV][NMeV]P[NMeN][ξNMeA]-OMe), the GI50 in test [1] was 22.4 µM (inactive); in test [2], 23.2 µM (inactive); in test [3], 17.5 µM (inactive); in [4], 19.5 µM (inactive); in [5], 9.44 µM (inactive); in [6] it was 37.2 µM (inactive). Besides, the GI50 in test [7] was 12 µM (inactive); in test [8], 26 µM (inactive); in test [9], 25.6 µM (inactive); in test [10] it was 18.3 µM (inactive); in test [11], 16.9 µM (inactive); in [12] it was 20.9 µM (inactive). The GI50 in [13] is 44.4 µM (inactive); in [14], 17.9 µM (inactive); in test [15] it was 15.1 µM (inactive); in [16], 14.2 µM (inactive); in test [17], > 50 µM (inactive); in [18] it was 22 µM. Further, the GI50 in test [19] is 46.2 µM (inactive); in test [20], 17.6 µM (inactive).

As to `Cc1cc(NC(=O)NC(=O)c2ccccc2[N+](=O)[O-])ccc1Oc1ncc(Cl)cn1`, the GI50 in test [1] is 0.51 µM (active); in [2] it was 0.0115 µM (active); in test [3] it was 0.303 µM (active); in test [4] it was 34.1 µM (inactive); in [5], 0.133 µM (active); in test [6], 0.0548 µM (active). Also, the GI50 was 0.0598 µM (active) in test [7]; 0.492 µM (active) in test [8]; 0.0431 µM (active) in test [9]; 0.0488 µM (active) in [10]; 0.037 µM (active) in test [11]; 0.0604 µM (active) in test [13]. The GI50 was 0.0964 µM (active) in test [14]; 0.0501 µM (active) in [15]; 0.037 µM (active) in test [16]; 0.125 µM (active) in test [17]; 0.113 µM in [18]; 0.0575 µM (active) in test [19]. The GI50 in [20] was 0.0671 µM (active).

Regarding `C[C@]12CCc3nonc3C1CC[C@@H]1C2CC[C@]2(C)C(=O)/C(=N\O)CC12` (stereo not given in full), the GI50 is > 100 µM (inactive) in test [1]; > 100 µM (inactive) in test [3]; 46 µM (inactive) in test [5]; > 100 µM (inactive) in [6]; > 100 µM (inactive) in test [7]; > 100 µM (inactive) in test [8]. Moreover, the GI50 in test [9], in [10], in [11], in [12], in test [13] and in test [14] was > 100 µM (inactive) in each case. For the same compound, the GI50 is > 100 µM (inactive) in test [15]; > 100 µM (inactive) in test [17]; greater than 100 µM in test [18]; > 100 µM (inactive) in test [19]; > 100 µM (inactive) in test [20].

In the case of `CCCCOC(=O)C1C2CCC(O2)C1C(=O)OCCCC` (stereo not given), the GI50 was > 100 µM (inactive) in test [1]; > 100 µM (inactive) in test [3]; > 44.8 µM (inactive) in [5]; 4.17 µM (inactive) in [6]; > 100 µM (inactive) in test [7]; > 73.3 µM (inactive) in [8]. For the same compound, the GI50 in [9] was > 55.1 µM (inactive); in test [10], > 45.7 µM (inactive); in [11] it was > 100 µM (inactive); in test [12] it was > 100 µM (inactive); in test [13], > 100 µM (inactive); in [14], > 100 µM (inactive). Moreover, the GI50 in [15] was > 100 µM (inactive); in test [17] it was > 45.4 µM (inactive); in test [18] it was greater than 65.2 µM; in test [19] it was > 100 µM (inactive); in [20] it was > 44.8 µM (inactive).

Regarding `Cc1cc2c(c3oc(C(O)(CO)C4CO4)cc(=O)c13)C(=O)c1c(O)cccc1C2=O` (stereo not given), the GI50 in test [1] was 0.000266 µM (active); in [2], 0.00121 µM (active); in [3] it was 0.000569 µM (active); in test [4], 0.00163 µM (active); in test [5], 0.000356 µM (active); in [6] it was 0.000372 µM (active). Further, the GI50 in test [7] is 0.00139 µM (active); in [8], 0.000674 µM (active); in test [9], 0.00279 µM (active); in [10] it was 0.00104 µM (active); in test [11], 0.000982 µM (active); in test [12], 0.00013 µM (active). The GI50 is 0.00212 µM (active) in test [13]; 0.031 µM (active) in test [14]; < 0.01 µM (active) in test [15]; 0.000435 µM (active) in [16]; 0.00149 µM (active) in [17]; 0.000887 µM in test [18]. Also, the GI50 in [19] is 0.00188 µM (active); in test [20], 0.000439 µM (active).

With `COC(=O)c1[nH]c(=S)[nH]c(=O)c1-c1ccc(Cl)cc1`, the GI50 in test [1], in test [3], in test [5], in test [6], in test [7] and in test [8] was > 50 µM (inactive) throughout. Further, the GI50 in [9], in [10], in [11], in test [12], in test [13] and in test [14] was > 50 µM (inactive) each time. In addition, the GI50 was > 50 µM (inactive) in test [15]; > 50 µM (inactive) in test [17]; greater than 50 µM in test [18]; > 50 µM (inactive) in test [19]; > 50 µM (inactive) in test [20].

For the origin of these results see ChEMBL document CHEMBL1201862, “PubChem BioAssay data set” (2004).
